{
  "source": "paper PMC8800111",
  "about": "(The Journal of Biological Chemistry, 2021)",
  "type_in_all_cases": "cell-based",
  "key": {"[1]": {"biological_target": "proteins of U3A human fibrosarcoma cells (4462 proteins detected) (Homo sapiens, UniProt Q8TDD1)", "conditions": "protein DDX54; U3A, 10 μM, 2 h"}, "[2]": {"biological_target": "proteins of U3A human fibrosarcoma cells (4462 proteins detected) (Homo sapiens, UniProt Q96PE7)", "sequence (Q96PE7 37-176)": "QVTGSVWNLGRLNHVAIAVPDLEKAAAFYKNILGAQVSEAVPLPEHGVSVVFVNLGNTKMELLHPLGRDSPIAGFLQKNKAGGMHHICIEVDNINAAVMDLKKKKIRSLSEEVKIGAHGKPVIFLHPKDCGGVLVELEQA", "conditions": "protein MCEE; U3A, 10 μM, 2 h"}, "[3]": {"biological_target": "proteins of U3A human fibrosarcoma cells (4462 proteins detected) (Homo sapiens, UniProt Q9H944)", "conditions": "protein MED20; U3A cells"}, "[4]": {"biological_target": "proteins of U3A human fibrosarcoma cells (4462 proteins detected) (Homo sapiens, UniProt Q99459)", "conditions": "protein CDC5L; U3A cells"}, "[5]": {"biological_target": "proteins of U3A human fibrosarcoma cells (4462 proteins detected) (Homo sapiens, UniProt Q15051)", "sequence (Q15051 whole entry)": "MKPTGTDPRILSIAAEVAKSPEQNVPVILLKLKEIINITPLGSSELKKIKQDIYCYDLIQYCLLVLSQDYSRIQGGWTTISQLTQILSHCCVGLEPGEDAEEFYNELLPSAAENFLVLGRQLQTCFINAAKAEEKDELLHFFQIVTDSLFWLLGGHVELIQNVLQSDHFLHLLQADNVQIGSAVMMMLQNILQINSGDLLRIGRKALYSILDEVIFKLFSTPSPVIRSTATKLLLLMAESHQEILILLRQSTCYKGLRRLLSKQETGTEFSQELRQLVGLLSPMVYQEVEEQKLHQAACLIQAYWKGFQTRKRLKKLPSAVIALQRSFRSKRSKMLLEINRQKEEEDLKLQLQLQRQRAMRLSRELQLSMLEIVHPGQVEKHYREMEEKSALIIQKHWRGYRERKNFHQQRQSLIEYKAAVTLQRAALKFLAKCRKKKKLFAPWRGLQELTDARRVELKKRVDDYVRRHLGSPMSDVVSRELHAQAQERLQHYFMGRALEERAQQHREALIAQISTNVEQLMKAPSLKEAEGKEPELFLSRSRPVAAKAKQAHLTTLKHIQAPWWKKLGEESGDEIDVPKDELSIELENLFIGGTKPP", "conditions": "protein IQCB1; U3A, 10 μM, 2 h"}, "[6]": {"biological_target": "proteins of U3A human fibrosarcoma cells (4462 proteins detected) (Homo sapiens, UniProt Q9NXR1)", "conditions": "protein NDE1, U3A cells"}, "[7]": {"biological_target": "proteins of U3A human fibrosarcoma cells (4462 proteins detected) (Homo sapiens, UniProt P05121)", "conditions": "protein SERPINE1; U3A cells"}, "[8]": {"biological_target": "proteins of U3A human fibrosarcoma cells (4462 proteins detected) (Homo sapiens, UniProt Q5T2R2)", "conditions": "protein PDSS1; U3A cells"}, "[9]": {"biological_target": "proteins of U3A human fibrosarcoma cells (4462 proteins detected) (Homo sapiens, UniProt O94992)", "conditions": "protein HEXIM1, U3A cells"}, "[10]": {"biological_target": "proteins of U3A human fibrosarcoma cells (4462 proteins detected) (Homo sapiens, UniProt P09972)", "sequence (P09972 whole entry)": "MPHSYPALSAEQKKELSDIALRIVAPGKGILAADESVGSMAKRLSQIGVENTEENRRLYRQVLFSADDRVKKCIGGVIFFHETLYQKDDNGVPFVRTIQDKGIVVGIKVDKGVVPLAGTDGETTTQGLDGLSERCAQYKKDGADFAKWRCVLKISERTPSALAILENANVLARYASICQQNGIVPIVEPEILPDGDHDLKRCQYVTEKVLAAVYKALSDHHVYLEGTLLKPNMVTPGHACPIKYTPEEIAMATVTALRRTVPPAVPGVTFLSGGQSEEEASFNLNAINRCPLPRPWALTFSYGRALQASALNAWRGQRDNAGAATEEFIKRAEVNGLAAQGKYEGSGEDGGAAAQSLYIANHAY", "conditions": "protein ALDOC, U3A cells"}, "[11]": {"biological_target": "proteins of U3A human fibrosarcoma cells (4462 proteins detected) (Homo sapiens, UniProt Q9NPF4)", "conditions": "protein OSGEP; soluble abundance after heat, U3A cells"}, "[12]": {"biological_target": "proteins of U3A human fibrosarcoma cells (4462 proteins detected) (Homo sapiens, UniProt Q9Y2P8)", "sequence (Q9Y2P8 whole entry)": "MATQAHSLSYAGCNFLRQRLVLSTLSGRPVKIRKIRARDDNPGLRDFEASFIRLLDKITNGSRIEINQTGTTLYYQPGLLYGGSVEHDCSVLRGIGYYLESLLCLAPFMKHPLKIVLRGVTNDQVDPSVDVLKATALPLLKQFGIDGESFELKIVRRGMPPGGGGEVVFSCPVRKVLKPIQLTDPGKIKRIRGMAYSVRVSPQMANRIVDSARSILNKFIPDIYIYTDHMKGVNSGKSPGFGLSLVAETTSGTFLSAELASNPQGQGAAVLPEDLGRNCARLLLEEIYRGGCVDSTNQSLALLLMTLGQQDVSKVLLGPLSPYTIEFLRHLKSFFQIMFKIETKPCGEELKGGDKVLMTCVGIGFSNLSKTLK", "conditions": "protein RCL1; U3A cells"}, "[13]": {"biological_target": "proteins of U3A human fibrosarcoma cells (4462 proteins detected) (Homo sapiens, UniProt Q96FZ2)", "conditions": "protein HMCES, U3A cells"}, "[14]": {"biological_target": "proteins of U3A human fibrosarcoma cells (4462 proteins detected) (Homo sapiens, UniProt Q16891)", "conditions": "protein IMMT; U3A cells"}, "[15]": {"biological_target": "proteins of U3A human fibrosarcoma cells (4462 proteins detected) (Homo sapiens, UniProt Q9H3U1)", "conditions": "protein UNC45A; U3A cells"}, "[16]": {"biological_target": "proteins of U3A human fibrosarcoma cells (4462 proteins detected) (Homo sapiens, UniProt Q9UHL4)", "conditions": "protein DPP7; U3A cells"}, "[17]": {"biological_target": "proteins of U3A human fibrosarcoma cells (4462 proteins detected) (Homo sapiens, UniProt P50402)", "conditions": "protein EMD; soluble abundance after heat, U3A cells"}, "[18]": {"biological_target": "proteins of U3A human fibrosarcoma cells (4462 proteins detected) (Homo sapiens, UniProt Q13492)", "conditions": "protein PICALM; U3A cells"}, "[19]": {"biological_target": "proteins of U3A human fibrosarcoma cells (4462 proteins detected) (Homo sapiens, UniProt O75674)", "conditions": "protein TOM1L1; soluble abundance after heat, U3A cells"}, "[20]": {"biological_target": "proteins of U3A human fibrosarcoma cells (4462 proteins detected) (Homo sapiens, UniProt P49916)", "conditions": "protein LIG3; U3A cells"}, "[21]": {"biological_target": "proteins of U3A human fibrosarcoma cells (4462 proteins detected) (Homo sapiens, UniProt P42766)", "conditions": "protein RPL35; U3A cells"}, "[22]": {"biological_target": "proteins of U3A human fibrosarcoma cells (4462 proteins detected) (Homo sapiens, UniProt Q16401)", "conditions": "protein PSMD5; soluble abundance after heat, U3A cells"}, "[23]": {"biological_target": "proteins of U3A human fibrosarcoma cells (4462 proteins detected) (Homo sapiens, UniProt P46087)", "conditions": "protein NOP2; U3A cells"}, "[24]": {"biological_target": "proteins of U3A human fibrosarcoma cells (4462 proteins detected) (Homo sapiens, UniProt P78559)", "sequence (P78559 whole entry)": "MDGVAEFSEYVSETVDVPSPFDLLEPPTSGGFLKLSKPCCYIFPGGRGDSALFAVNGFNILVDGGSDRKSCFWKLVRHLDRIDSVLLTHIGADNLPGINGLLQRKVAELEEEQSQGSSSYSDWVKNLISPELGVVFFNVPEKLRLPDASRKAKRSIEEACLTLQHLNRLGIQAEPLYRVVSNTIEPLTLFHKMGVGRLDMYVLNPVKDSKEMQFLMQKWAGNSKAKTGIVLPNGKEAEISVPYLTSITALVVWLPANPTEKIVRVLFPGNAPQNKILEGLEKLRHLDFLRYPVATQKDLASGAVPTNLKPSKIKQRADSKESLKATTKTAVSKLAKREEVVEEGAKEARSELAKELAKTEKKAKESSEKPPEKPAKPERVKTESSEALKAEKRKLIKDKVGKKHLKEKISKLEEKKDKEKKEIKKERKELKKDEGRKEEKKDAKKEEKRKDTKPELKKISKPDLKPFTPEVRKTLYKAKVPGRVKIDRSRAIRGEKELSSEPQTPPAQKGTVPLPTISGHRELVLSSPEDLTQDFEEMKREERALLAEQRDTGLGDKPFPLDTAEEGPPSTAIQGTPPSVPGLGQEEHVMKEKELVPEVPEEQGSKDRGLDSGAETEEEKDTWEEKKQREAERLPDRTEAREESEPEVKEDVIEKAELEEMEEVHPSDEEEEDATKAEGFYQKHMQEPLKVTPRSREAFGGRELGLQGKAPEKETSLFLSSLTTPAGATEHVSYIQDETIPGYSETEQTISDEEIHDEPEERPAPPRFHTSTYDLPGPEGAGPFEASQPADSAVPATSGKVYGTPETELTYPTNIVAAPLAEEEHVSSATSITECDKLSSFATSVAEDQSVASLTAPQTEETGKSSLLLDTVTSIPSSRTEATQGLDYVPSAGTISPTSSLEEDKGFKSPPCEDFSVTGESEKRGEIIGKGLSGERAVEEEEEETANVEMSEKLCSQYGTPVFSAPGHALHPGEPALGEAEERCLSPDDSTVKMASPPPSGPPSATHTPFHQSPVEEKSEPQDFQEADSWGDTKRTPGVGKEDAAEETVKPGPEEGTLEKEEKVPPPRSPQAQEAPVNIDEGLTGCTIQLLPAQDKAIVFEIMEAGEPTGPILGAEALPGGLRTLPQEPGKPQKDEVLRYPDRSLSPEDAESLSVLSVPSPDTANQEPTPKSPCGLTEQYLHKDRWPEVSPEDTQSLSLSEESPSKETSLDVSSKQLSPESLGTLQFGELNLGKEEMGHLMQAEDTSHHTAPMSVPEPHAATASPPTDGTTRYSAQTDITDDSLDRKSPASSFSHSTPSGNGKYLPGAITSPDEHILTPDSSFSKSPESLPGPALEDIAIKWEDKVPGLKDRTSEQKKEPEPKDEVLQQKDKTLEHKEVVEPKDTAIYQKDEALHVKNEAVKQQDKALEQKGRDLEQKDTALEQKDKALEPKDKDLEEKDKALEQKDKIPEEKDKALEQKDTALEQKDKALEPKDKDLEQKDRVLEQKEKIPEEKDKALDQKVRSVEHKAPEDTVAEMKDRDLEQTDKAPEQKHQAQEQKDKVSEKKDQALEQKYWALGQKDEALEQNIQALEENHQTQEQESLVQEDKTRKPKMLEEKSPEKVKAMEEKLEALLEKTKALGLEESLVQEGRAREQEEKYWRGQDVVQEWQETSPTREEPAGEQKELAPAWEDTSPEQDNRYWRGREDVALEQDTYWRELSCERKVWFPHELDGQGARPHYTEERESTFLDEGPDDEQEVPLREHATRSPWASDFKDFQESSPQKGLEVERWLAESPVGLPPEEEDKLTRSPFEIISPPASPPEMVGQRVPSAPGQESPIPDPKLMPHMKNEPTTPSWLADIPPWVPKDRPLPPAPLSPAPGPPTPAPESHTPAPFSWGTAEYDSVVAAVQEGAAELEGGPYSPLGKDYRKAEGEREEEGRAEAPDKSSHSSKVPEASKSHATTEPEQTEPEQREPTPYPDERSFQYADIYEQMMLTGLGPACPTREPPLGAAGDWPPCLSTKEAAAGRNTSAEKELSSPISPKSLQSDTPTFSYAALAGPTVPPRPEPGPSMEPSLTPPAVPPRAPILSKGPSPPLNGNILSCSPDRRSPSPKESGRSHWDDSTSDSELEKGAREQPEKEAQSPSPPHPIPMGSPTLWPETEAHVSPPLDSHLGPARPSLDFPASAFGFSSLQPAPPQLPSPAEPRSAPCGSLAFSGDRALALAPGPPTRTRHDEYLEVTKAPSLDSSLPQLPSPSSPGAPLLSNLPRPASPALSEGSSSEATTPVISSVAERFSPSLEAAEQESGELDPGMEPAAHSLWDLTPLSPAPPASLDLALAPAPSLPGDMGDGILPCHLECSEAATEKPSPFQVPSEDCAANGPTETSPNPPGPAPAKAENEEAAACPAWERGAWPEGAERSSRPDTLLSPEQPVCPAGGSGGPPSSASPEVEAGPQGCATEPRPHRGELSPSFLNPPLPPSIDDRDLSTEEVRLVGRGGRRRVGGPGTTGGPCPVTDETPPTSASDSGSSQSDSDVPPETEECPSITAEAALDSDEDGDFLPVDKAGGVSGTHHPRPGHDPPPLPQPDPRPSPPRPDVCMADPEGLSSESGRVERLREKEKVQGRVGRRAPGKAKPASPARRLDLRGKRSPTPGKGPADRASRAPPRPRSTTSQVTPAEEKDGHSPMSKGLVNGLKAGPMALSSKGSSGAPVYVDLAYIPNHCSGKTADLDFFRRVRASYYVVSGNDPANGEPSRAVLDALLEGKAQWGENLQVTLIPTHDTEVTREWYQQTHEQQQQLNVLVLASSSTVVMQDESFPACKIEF", "conditions": "protein MAP1A, U3A cells"}, "[25]": {"biological_target": "proteins of U3A human fibrosarcoma cells (4462 proteins detected) (Homo sapiens, UniProt Q9NS91)", "conditions": "protein RAD18; U3A cells"}, "[26]": {"biological_target": "proteins of U3A human fibrosarcoma cells (4462 proteins detected) (Homo sapiens, UniProt O75976)", "conditions": "protein CPD; soluble abundance after heat, U3A cells"}, "[27]": {"biological_target": "proteins of U3A human fibrosarcoma cells (4462 proteins detected) (Homo sapiens, UniProt Q9H9F9)", "sequence (Q9H9F9 whole entry)": "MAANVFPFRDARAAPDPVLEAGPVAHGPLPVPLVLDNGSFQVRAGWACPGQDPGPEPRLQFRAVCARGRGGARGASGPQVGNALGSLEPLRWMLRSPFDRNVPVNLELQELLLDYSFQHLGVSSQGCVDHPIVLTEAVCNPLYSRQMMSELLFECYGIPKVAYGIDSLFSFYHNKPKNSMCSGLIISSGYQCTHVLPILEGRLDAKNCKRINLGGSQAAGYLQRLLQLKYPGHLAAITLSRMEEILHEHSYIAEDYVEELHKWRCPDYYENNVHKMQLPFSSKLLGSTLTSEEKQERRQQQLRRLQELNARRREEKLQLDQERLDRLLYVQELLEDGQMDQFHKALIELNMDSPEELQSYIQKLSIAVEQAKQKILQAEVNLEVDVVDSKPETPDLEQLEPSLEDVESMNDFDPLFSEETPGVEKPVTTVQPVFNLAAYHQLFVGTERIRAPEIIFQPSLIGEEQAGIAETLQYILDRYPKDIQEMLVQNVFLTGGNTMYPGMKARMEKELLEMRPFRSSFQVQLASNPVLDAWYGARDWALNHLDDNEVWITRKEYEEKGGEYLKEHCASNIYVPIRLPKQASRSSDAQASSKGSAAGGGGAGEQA", "conditions": "protein ACTR5; U3A cells"}, "[28]": {"biological_target": "proteins of U3A human fibrosarcoma cells (4462 proteins detected) (Homo sapiens, UniProt P41229)", "conditions": "protein KDM5C; U3A cells"}, "[29]": {"biological_target": "proteins of U3A human fibrosarcoma cells (4462 proteins detected) (Homo sapiens, UniProt Q8TAA5)", "sequence (Q8TAA5 33-225)": "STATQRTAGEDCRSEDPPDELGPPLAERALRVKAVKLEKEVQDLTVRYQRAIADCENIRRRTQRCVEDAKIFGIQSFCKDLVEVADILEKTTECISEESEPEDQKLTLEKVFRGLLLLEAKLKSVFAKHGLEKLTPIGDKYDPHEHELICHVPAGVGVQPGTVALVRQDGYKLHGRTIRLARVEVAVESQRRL", "conditions": "protein GRPEL2; U3A cells"}, "[30]": {"biological_target": "proteins of U3A human fibrosarcoma cells (4462 proteins detected) (Homo sapiens, UniProt Q9NSA3)", "conditions": "protein CTNNBIP1; U3A, 10 μM, 2 h"}},
  "data": [
    {"smiles": "CCc1nc(N)nc(N)c1-c1ccc(Cl)cc1", "note": "[pyrimethamine]", "values": [
      {"measurement": "Log2 (PYR/DMSO), DDX54", "setting": "[1]", "value": 0.25},
      {"measurement": "Log2 (PYR/DMSO), MCEE", "setting": "[2]", "value": 0.25},
      {"measurement": "Log2 (PYR/DMSO)", "setting": "[3]", "value": 0.18},
      {"measurement": "Log2 (PYR/DMSO)", "setting": "[4]", "value": 0.18},
      {"measurement": "Log2 (PYR/DMSO), IQCB1", "setting": "[5]", "value": -0.16},
      {"measurement": "Log2 (PYR/DMSO)", "setting": "[6]", "value": -0.04},
      {"measurement": "Log2 (PYR/DMSO)", "setting": "[7]", "value": 0.19},
      {"measurement": "Log2 (PYR/DMSO)", "setting": "[8]", "value": 0.20},
      {"measurement": "Log2 (PYR/DMSO)", "setting": "[9]", "value": -0.04},
      {"measurement": "Log2 (PYR/DMSO)", "setting": "[10]", "value": -0.04},
      {"measurement": "Log2 (PYR/DMSO)", "setting": "[11]", "value": 0.14},
      {"measurement": "Log2 (PYR/DMSO)", "setting": "[12]", "value": 0.21},
      {"measurement": "Log2 (PYR/DMSO)", "setting": "[13]", "value": -0.04},
      {"measurement": "Log2 (PYR/DMSO)", "setting": "[14]", "value": 0.19},
      {"measurement": "Log2 (PYR/DMSO)", "setting": "[15]", "value": 0.21},
      {"measurement": "Log2 (PYR/DMSO)", "setting": "[16]", "value": 0.22},
      {"measurement": "Log2 (PYR/DMSO)", "setting": "[17]", "value": 0.15},
      {"measurement": "Log2 (PYR/DMSO)", "setting": "[18]", "value": 0.17},
      {"measurement": "Log2 (PYR/DMSO)", "setting": "[19]", "value": 0.15},
      {"measurement": "Log2 (PYR/DMSO)", "setting": "[20]", "value": 0.16},
      {"measurement": "Log2 (PYR/DMSO)", "setting": "[21]", "value": 0.20},
      {"measurement": "Log2 (PYR/DMSO)", "setting": "[22]", "value": 0.14},
      {"measurement": "Log2 (PYR/DMSO)", "setting": "[23]", "value": 0.16},
      {"measurement": "Log2 (PYR/DMSO)", "setting": "[24]", "value": -0.04},
      {"measurement": "Log2 (PYR/DMSO)", "setting": "[25]", "value": 0.17},
      {"measurement": "Log2 (PYR/DMSO)", "setting": "[26]", "value": 0.14},
      {"measurement": "Log2 (PYR/DMSO)", "setting": "[27]", "value": 0.20},
      {"measurement": "Log2 (PYR/DMSO)", "setting": "[28]", "value": 0.18},
      {"measurement": "Log2 (PYR/DMSO)", "setting": "[29]", "value": 0.18},
      {"measurement": "Log2 (PYR/DMSO), CTNNBIP1", "setting": "[30]", "value": -0.15}
    ]}
  ]
}
